Measurements: patent US20260226103A1, “MODIFIED AMINO ACIDS AND USES THEREOF” (priority 2022, published 2026)
Square brackets hold non-standard residues; d marks the D form. Peptide text beside a SMILES is read from it. * marks the point of attachment. X1 = O=C(O)c1cc(NC(=S)*)ccc1-c1c2ccc(=O)cc-2oc2cc(O)ccc12; aIle = CC[C@@H](C)[C@H](N)C(=O)O; dCit = NC(=O)NCCC[C@@H](N)C(=O)O; X2 = N=C(N)c1ccc(C(=O)*)cc1; Dap = NC[C@H](N)C(=O)O; Ahx = NCCCCCC(=O)O; βAla = NCCC(=O)O

How the values were obtained:
[1] = system: HeLa cells; experiment: Cell uptake of FITC-peptides by flow cytometry; assay type: cell-based; conditions: for time of maximum uptake: 37° C., 1 hr vs 4 hr
Protocol: (§2) HeLa and U2OS cells were maintained in medium consisting of Dulbecco's modified Eagle's medium (DMEM), 10% FBS, 1% L-Glutamine and 1% penicillin/streptomycin at pH 7.4. […] Cells were cultured in a humidified incubator at 37° C. with 5% CO2 atmosphere.
HeLa or U2OS cells were cultured in 24 well plates (4.5×10^5 cells per well) for 24 h. On the day of the experiment, the cells were incubated with 5 μM FITC-peptide in DMEM with 10% FBS at 37° C. or 4° C. for required time. The media was then removed and wells were washed with PBS (2×500 μL per well) and then detached from the plate with TrypLE Xpress (500 μL per well). PBS containing 2% bovine serum albumin (500 μL) was added to each well and cells transferred to 5 mL polystyrene FACS tubes. Cells were centrifuged (5 min, 5000 rpm) and washed with PBS containing 2% bovine serum albumin (2×500 μL) before being suspended in PBS containing 2% bovine serum albumin (1.00 mL per FACS tube).
(§3) Cells were finally analysed on a Thermo fisher Attune NxT flow cytometer with laser excitation/emission set at 490 nm/519 nm and a flow rate of 200 μL min^−1. Flow cytometry data was analysed using FlowJo software with gating set at a range of 51K-285K side scatter and 251K-815K for forward scatter variance for every sample. Median fluorescence intensity values were calculated from the gating range using FlowJo.
(§4) Median fluorescence values reported were normalised by subtracting average background fluorescence at 490 nm/519 nm of a set of untreated cells (ran with every experiment) from the value of each FITC labelled peptide.

[2] = system: HeLa cells; experiment: Cellular distribution by confocal microscopy; assay type: cell-based; conditions: 5 μM fluorescein-tagged CPP, 4 h
Protocol: HeLa cells were cultured in 8 well plates (Ibidi plates) (3.5×10^4 cells per well) for 24 h. […] After 3.5 h incubation, Hoescht 33258 was added at a concentration of 5.6 μM and cells incubated at 37° C. for the final 0.5 h. Cells were removed from the incubator and media removed. Each well was then washed with serum and phenol red free media (2×200 μL) then incubated with 4% formaldehyde in PBS (200 μL) for 20 min at room temperature. After incubation the 4% formaldehyde solution was removed and PBS (200 μL) added to each well. The cells were then imaged using a Leica S8 confocal microscope. Excitation/emission was set at 352 nm/461 nm for Hoescht 33258 imaging and 495 nm/519 nm for FITC labelled peptides. Images were processed using ImageJ software. Images were ‘rolling ball’ averaged across the set for each channel to remove background fluorescence.

[3] = Cell viability AlamarBlue assay; assay type: cell-based; conditions: human, HeLa cells, 24 h
Protocol: (§1) HeLa, U2OS or HepG2 cells were cultured in 96 well plates (2.6×10^3 cells per well) for 24 h. […] The experiments were performed in triplicate for each concentration. AlamarBlue® was then added to each well (0.5 mM, 10 μL, 10% v/v) and incubated for a further 6 h for HeLa and HepG2 cells and 24 h for U2OS cells. Cells were then analysed using a HIdex plate reader with laser excitation/emission set at 560 nm/595 nm. Fluorescence of untreated cells were used as a 100% viable control, with 1% Triton X used as a negative control, and viability of cells were calculated as a percentage of the control fluorescence values using OriginPro 2019b software.

[4] = system: U2OS cells; conditions: U2OS cell line
Protocol: as §2
HeLa or U2OS cells were cultured in 24 well plates (4.5×10^5 cells per well) for 24 h. On the day of the experiment, the cells were incubated with 5 μM FITC-peptide in DMEM with 10% FBS at 37° C. or 4° C. for required time. The media was then removed and wells were washed with PBS (2×500 μL per well) and then detached from the plate with TrypLE Xpress (500 μL per well). PBS containing 2% bovine serum albumin (500 μL) was added to each well and cells transferred to 5 mL polystyrene FACS tubes. […]
as §3, §4

[5] = pH of 7.4; cited from earlier work
[6] = system: HeLa cells; experiment: Cell viability AlamarBlue assay; assay type: cell-based; conditions: for cytotoxicity / tolerability (in words): HeLa cells, at or up to 100 μM
Protocol: as §1

CC[C@@H](C)[C@H](NC(=O)[C@H](CC(C)C)NC(=O)[C@@H]1CCCN1C(=O)CCCCCNC(=S)Nc1ccc(-c2c3ccc(=O)cc-3oc3cc(O)ccc23)c(C(=O)O)c1)C(=O)N[C@@H](Cc1ccc(O)cc1)C(=O)N[C@@H](CC(C)C)C(=O)N[C@H](CCCNC(N)=O)C(=O)N[C@@H](CC(C)C)C(=O)N[C@@H](CC(C)C)C(=O)N[C@H](CCCNC(N)=O)C(=O)NCC(N)=O [TP-4, FITC-XPLIYLCitLLCitG] ({X1-Ahx}-PL[aIle]YL[dCit]LL[dCit]G-NH2)
cell uptake relative to TP-2 (in words) ([1]; 5 μM FITC-peptide): reduction in cellular uptake

CC[C@H](C)[C@H](NC(=O)[C@H](CC(C)C)NC(=O)[C@H](Cc1ccccc1)NC(=O)[C@H](CCC(N)=O)NC(=O)[C@H](Cc1ccc(O)cc1)NC(=O)[C@H](CCCNC(=N)N)NC(=O)[C@H](CCCNC(=N)N)NC(=O)CCNC(=O)[C@H](CCCNC(=N)N)NC(=O)[C@H](CCCNC(=N)N)NC(=O)CCCCCNC(=O)[C@H](CCCNC(=N)N)NC(=O)CCCCCNC(=S)Nc1ccc(-c2c3ccc(=O)cc-3oc3cc(O)ccc23)c(C(=O)O)c1)C(=O)N[C@@H](CCCNC(=N)N)C(=O)NCCC(=O)N[C@@H](CCCNC(=N)N)C(=O)NCCCCCC(=O)N[C@@H](CCCNC(=N)N)C(N)=O [PiP6, FITC-XRXRRBRRYQFLIRBRXR] ({X1-Ahx}-R[Ahx]RR[βAla]RRYQFLIR[βAla]R[Ahx]R-NH2)
cellular distribution profile (in words) [2]: high level of accumulation within the nucleus | time of maximum uptake ([1]; 5 μM FITC-peptide): 1 h | viability at 24 h, 30 µM ([3]; 30 μM FITC-peptide): 15% | viability at 24 h, 100 µM ([3]; 100 μM FITC-peptide): 5%

CC[C@@H](C)[C@H](NC(=O)[C@H](CC(C)C)NC(=O)[C@@H]1CCCN1C(=O)CCCCCNC(=S)Nc1ccc(-c2c3ccc(=O)cc-3oc3cc(O)ccc23)c(C(=O)O)c1)C(=O)N[C@@H](Cc1ccc(O)cc1)C(=O)N[C@@H](CC(C)C)C(=O)N[C@@H](CNC(=O)c1ccc(C(=N)N)cc1)C(=O)N[C@@H](CC(C)C)C(=O)N[C@@H](CC(C)C)C(=O)N[C@@H](CNC(=O)c1ccc(C(=N)N)cc1)C(=O)NCC(N)=O [Am-TP-2, FITC-XPLIYLAmLLAmG] ({X1-Ahx}-PL[aIle]YL[Dap](X2)LL[Dap](X2)G-NH2)
uptake trend (in words) [4]: enhanced uptake | cellular distribution profile (in words) [2]: cytoplasmic distribution profile | decrease in cellular uptake at 4° C. relative to 37° C. [1]: 30 fold | uptake at 4 hr incubation relative to 1 hr (in words) [1]: enhanced uptake | increase in uptake relative to TP-2 ([1]; 5 μM FITC-peptide): 4 fold

CC[C@@H](C)[C@H](NC(=O)[C@H](CC(C)C)NC(=O)[C@@H]1CCCN1C(=O)CCCCCNC(=S)Nc1ccc(-c2c3ccc(=O)cc-3oc3cc(O)ccc23)c(C(=O)O)c1)C(=O)N[C@@H](Cc1ccc(O)cc1)C(=O)N[C@@H](CC(C)C)C(=O)N[C@H](CCCNC(=N)N)C(=O)N[C@@H](CC(C)C)C(=O)N[C@@H](CC(C)C)C(=O)N[C@H](CCCNC(=N)N)C(=O)NCC(N)=O [TP-5, FITC-XPLIYLrLLrG] ({X1-Ahx}-PL[aIle]YL[dR]LL[dR]G-NH2)
cell uptake relative to TP peptides containing L-Arg (TP-1 and TP-2) (in words) ([1]; 5 μM FITC-peptide): enhanced uptake | cell uptake relative to TP-2 (in words) ([1]; 5 μM FITC-peptide): further reduction in uptake

N=C(N)NCCC[C@H](N)C(=O)O [arginine]
Log D or c Log D [5]: approximately −3.5

N=C(N)NCCC[C@H](NC(=O)[C@H](CCCNC(=N)N)NC(=O)[C@H](CCCNC(=N)N)NC(=O)[C@H](CCC(N)=O)NC(=O)[C@H](CCCNC(=N)N)NC(=O)[C@H](CCCNC(=N)N)NC(=O)[C@H](CCCCN)NC(=O)[C@H](CCCCN)NC(=O)[C@H](CCCNC(=N)N)NC(=O)CCCCCNC(=S)Nc1ccc(-c2c3ccc(=O)cc-3oc3cc(O)ccc23)c(C(=O)O)c1)C(N)=O [Tat, FITC-XRKKRRQRRR]
cellular distribution profile (in words) [2]: accumulating in puncta | time of maximum uptake ([1]; 5 μM FITC-peptide): 1 h | cytotoxicity / tolerability (in words) [6]: moderate levels of toxicity

CC[C@@H](C)[C@H](NC(=O)[C@H](CC(C)C)NC(=O)[C@@H]1CCCN1C(=O)CCCCCNC(=S)Nc1ccc(-c2c3ccc(=O)cc-3oc3cc(O)ccc23)c(C(=O)O)c1)C(=O)N[C@@H](Cc1ccc(O)cc1)C(=O)N[C@@H](CC(C)C)C(=O)N[C@H](CCCCN)C(=O)N[C@@H](CC(C)C)C(=O)N[C@@H](CC(C)C)C(=O)N[C@H](CCCCN)C(=O)NCC(N)=O [TP-3, FITC-XPLIYLKLLKG] ({X1-Ahx}-PL[aIle]YL[dK]LL[dK]G-NH2)
cell uptake relative to TP-2 (in words) ([1]; 5 μM FITC-peptide): no difference in cell uptake

CC(C)C[C@H](NC(=O)[C@H](CC(C)C)NC(=O)[C@H](CCCNC(=N)N)NC(=O)[C@H](CCCNC(=N)N)NC(=O)[C@H](CC(C)C)NC(=O)[C@H](CC(C)C)NC(=O)[C@H](CCCNC(=N)N)NC(=O)CCCCCNC(=S)Nc1ccc(-c2c3ccc(=O)cc-3oc3cc(O)ccc23)c(C(=O)O)c1)C(=O)N[C@@H](CCCNC(=N)N)C(N)=O [Pep-2, FITC-XRLLRRLLR] (HELM PEPTIDE1{[O=C(O)c1cc(NC(=S)[*:2])ccc1-c1c2ccc(=O)cc-2oc2cc(O)ccc12].[O=C(CCCCCN[*:1])[*:2]].R.L.L.R.R.L.L.R.[am]}$$$$V2.0)
cytotoxicity relative to Pep-1 (in words) ([6]; at 100 M (so in the source)): displaying cytotoxicity

CC[C@@H](C)[C@H](NC(=O)[C@H](CC(C)C)NC(=O)[C@@H]1CCCN1C(=O)CCCCCNC(=S)Nc1ccc(-c2c3ccc(=O)cc-3oc3cc(O)ccc23)c(C(=O)O)c1)C(=O)N[C@@H](Cc1ccc(O)cc1)C(=O)N[C@@H](CC(C)C)C(=O)N[C@@H](CCCNC(=N)N)C(=O)N[C@@H](CC(C)C)C(=O)N[C@@H](CC(C)C)C(=O)N[C@@H](CCCNC(=N)N)C(=O)NCC(N)=O [TP-2, FITC-XPLIYLRLLRG] ({X1-Ahx}-PL[aIle]YLRLLRG-NH2)
cellular distribution profile (in words) [2]: extensively distributed throughout the cytoplasm | cytotoxicity / tolerability (in words) [6]: well tolerated

CC[C@@H](C)[C@H](NC(=O)[C@H](CC(C)C)NC(=O)[C@@H]1CCCN1C(=O)CCCCCNC(=S)Nc1ccc(-c2c3ccc(=O)cc-3oc3cc(O)ccc23)c(C(=O)O)c1)C(=O)N[C@@H](CC(C)C)C(=O)N[C@@H](CC(C)C)C(=O)N[C@@H](CCCNC(=N)N)C(=O)N[C@@H](CC(C)C)C(=O)N[C@@H](CC(C)C)C(=O)N[C@@H](CCCNC(=N)N)C(=O)NCC(N)=O [TP-1, FITC-XPLILLRLLRG] ({X1-Ahx}-PL[aIle]LLRLLRG-NH2)
cellular distribution profile (in words) [2]: extensively distributed throughout the cytoplasm | cytotoxicity / tolerability (in words) [6]: well tolerated
